Measurements: US20040224987A1, “Crystalline form C of omeprazole sodium and the related process of its preparation, a crystalline form D of omeprazole sodium and the related process of its preparation, and a process for preparation of crystalline form a of omeprazole sodium” (DR. REDDY'S LABORATORIES LIMITED, priority 2003, published 2004)
Like-named read-outs stand apart in the source and are kept apart here.

Columns and labels:
[1] = hygroscopicity of crystalline forms of omeprazole sodium; type: physicochemical; settings: forms obtained by the processes of the invention
[2] = Form-A prepared according to Example 3 of WO99/00380, dried substance with one strongly bound water molecule, normal conditions; cited from earlier work
[3] = cited from earlier work; for physical stability: forms disclosed in WO 99/00380
[4] = stability of crystalline forms of omeprazole sodium

SMILES | hygroscopicity [1] | physical stability [3] | also measured
COc1ccc2[n-]c([S+]([O-])Cc3ncc(C)c(OC)c3C)nc2c1.[Na+] (stereo not drawn) [Form-A, omeprazole sodium] | non-hydroscopic |  | hygroscopicity [2]: very hygroscopic; thermodynamic stability ([3]; Form-A produced according to Example 3 of WO 99/00380): thermodynamically unstable; thermodynamic stability ([4]; Form-A obtained by the process of the invention, compared with prior art processes): thermodynamically more stable; stability (kind not specified) ([4]; forms obtained by the processes of the invention): stable
COc1ccc2[n-]c([S+]([O-])Cc3ncc(C)c(OC)c3C)nc2c1.[Na+] (stereo not drawn) [Form-B, omeprazole sodium] |  | physically stable | 
COc1ccc2[n-]c([S+]([O-])Cc3ncc(C)c(OC)c3C)nc2c1.[Na+] (stereo not drawn) [Form-X, omeprazole sodium] |  | physically unstable | 

Continued, in another order:

hygroscopicity [1] | SMILES | physical stability [3] | also measured
less hygroscopic than Form A | COc1ccc2[n-]c([S+]([O-])Cc3ncc(C)c(OC)c3C)nc2c1.[Na+] (stereo not drawn) [Form C, omeprazole sodium] |  | 
non-hygroscopic | COc1ccc2[n-]c([S+]([O-])Cc3ncc(C)c(OC)c3C)nc2c1.[Na+] (stereo not drawn) [Form D, omeprazole sodium] |  | 
